For 67 compounds, EC50 results are on record in PubChem BioAssay AID1902 (Broad Institute, 2009).

For orientation: EC50 means the midpoint of the concentration-response curve.

SMILES strings stand for the structures. Activity calls are given as the source filed them.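 Rule for the calls: active = EC50 no more than a set limit of log units above the highest dose; inactive = the rest.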

This experiment addresses S. pyogenes SKKanGAS, kanamycin survival, BacTiterGlo, 6 h. Put plainly: SKKanGAS survival reduction under kanamycin, dose response, streptokinase promoter inhibitor project, SKKanGAS strain, luminescence, dose confirmation (AID 1902).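 Note: lower survival reflects blocked streptokinase promoter driving kanamycin resistance gene.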
Regarding `COc1ccc(-c2nc(/C=C3\C(C)=Nc4ccccc43)c(O)o2)cc1`, the EC50 is 3.5 µM. Next, `N=C1SCC(=O)N1c1ncc(Cc2ccc(F)cc2)s1`: 1 µM.

For `O=C(NC1=NCCS1)c1cc(-c2ccccc2)nn1-c1ccccc1`, the EC50 was 6.06 µM. The result for `COc1ccccc1N=Nc1nc(-c2ccccc2)c(-c2ccccc2)[nH]1` reads 1.39 µM.

Turning to `S=C(Nc1ccc(Cl)cc1)c1nc2ccccc2[nH]1`, the EC50 is 0.183 µM. As for `CC(C)COC(=O)c1cccc2c1-c1ccccc1/C2=N\O`, the EC50 is 4.99 µM. The result for `O=C1C(Nc2ccc(O)cc2)=C/C(=N/S(=O)(=O)c2cccs2)c2ccccc21` reads 1.97 µM; that for `Nc1cc(-c2ccc(OC(F)(F)F)cc2)nn1-c1ccc(Cl)c(Cl)c1`, 6.17 µM. The result for `CO[C@H]1C=CO[C@@]2(C)Oc3c(C)c(O)c4c(O)c(c(C=NN5CCN(C)CC5)c(O)c4c3C2=O)NC(=O)C(C)=CC=C[C@H](C)[C@H](O)[C@@H](C)[C@@H](O)[C@@H](C)[C@H](OC(C)=O)[C@@H]1C` reads under 0.06 µM. Take `CCN(CC(=O)NC(C)(C)C)C(=O)COc1c(Cl)cc(Cl)c2ccc(C)nc12`: the EC50 is 0.499 µM. With `Nc1ccc(-c2nc3nc(N)nc(N)c3nc2-c2ccc(N)cc2)cc1`, the EC50 is 3.77 µM. Turning to `c1ccc(-c2noc(-c3ccccc3-c3ccccc3)n2)cc1`, the half-maximal effective concentration (EC50) is 3.7 µM. Next, `CC(C)(C)c1ccc(OCC(O)CS(=O)(=O)c2ccccn2)cc1` (configuration not stated): > 15 µM (inactive); `COc1cc(OC)c2cc(C(=O)N/N=C/c3ccccc3O)[nH]c2c1`: 1.1 µM; `CCc1ccccc1NC(=O)NC(C)c1ccc2c(c1)OCO2` (configuration not stated): > 15 µM (inactive).

On to `CC1Oc2cc3oc4c(O)c(O)ccc4c(=O)c3c(O)c2C1(C)C` (configuration not stated), for which the EC50 is 5.89 µM. The result for `CCCn1c(NC(=O)c2ccccc2Br)nc2ccccc21` reads 5.66 µM; that for `COc1cccc(CNCC(O)(c2ccc(Cl)cc2)c2ccc(Cl)cc2)c1`, 3.7 µM. The result for `CCCc1sc(N/N=C/c2ccccn2)nc1-c1ccc(F)cc1` reads 9.33 µM. For `COc1ccc(CCN2C(=O)c3[nH]nc(-c4ccccc4O)c3C2c2cccc(Cl)c2)cc1` (configuration not stated), the EC50 is 7.71 µM. Next, `Cc1sc2nc(-c3ccccn3)[nH]c(=O)c2c1-c1ccccc1`: 1.28 µM. On to `Cc1ccc(-c2csc(-c3c[nH]c4ccccc34)n2)c(C)c1`, for which the EC50 is 6.03 µM. For the compound `O=C(N/N=C/c1c(O)ccc2ccccc12)c1ccc(Br)o1`, the EC50 was 2.3 µM.

In the case of `CC/C(=N\NC(=S)Nc1cc(C)ccc1C)c1ccc(OC(F)F)cc1`, the EC50 is 3.13 µM.

In the case of `CCCCCCCCCc1nc2sc3c(c2c(=O)n1NC(=O)c1ccccc1[N+](=O)[O-])CC(C)(C)OC3`, the EC50 was 2.75 µM. The result for `CC1(C)OC(C(O)(c2ccccc2)c2ccccc2)[C@@H](C(O)(c2ccccc2)c2ccccc2)O1` (some centres not stated) reads 3.36 µM; that for `O=c1ccc(N=Nc2ccccc2)ccc1O`, 3.51 µM.

Consider `N#Cc1ccc(-c2ccccc2)nc1SCC(=O)c1cc2ccccc2oc1=O`, for which the EC50 was 0.596 µM.

In the case of `COc1ccc(-c2c(C(F)(F)F)[nH]n3c(=O)cc(-c4ccccc4)nc23)cc1`, the EC50 is 4.73 µM. The result for `Cc1nc(Nc2cnc(/C=C/c3cc(C(=O)Nc4cccc(C(F)(F)F)c4)ccc3C)cn2)cc(N2CCNCC2)n1` reads 6.36 µM; that for `CCc1ccc(/C=N/n2c(C3CCCCC3)n[nH]c2=S)cc1`, 7.16 µM. Next, `CCc1nnc(NS(=O)(=O)c2ccc(NCc3cc(Cl)cc(Cl)c3O)cc2)s1`: 14.2 µM; `O=C(Nc1nc(-c2ccccn2)cs1)C12CC3CC(CC(O)(C3)C1)C2`: 1.44 µM. For `Cc1ccc(NS(=O)(=O)c2cc([N+](=O)[O-])ccc2NNC(=S)Nc2cccc(Cl)c2)c(C)c1`, the EC50 is 0.865 µM.

Turning to `O=[N+]([O-])c1ccc(/C=N/NC(=S)Nc2ccc(Cl)cc2Cl)s1`, the EC50 was 1.75 µM. With `C/C(CC(=O)Nc1ccc(Cl)c(C(F)(F)F)c1)=N\NC(=O)c1cc2ccccc2cc1O`, the EC50 was 1.58 µM.

Turning to `CCOC(=O)c1cnn(-c2nc(-c3ccccc3)cs2)c1C(F)(F)F`, the EC50 is 5.29 µM. Next, `CN1CCN(NC(=O)Nc2cc(Cl)cc(Cl)c2)CC1`: 3.72 µM; `NC1CCN(c2nc3c(cc2F)c(=O)c(C(=O)O)cn3-c2ccc(F)cc2F)C1` (configuration not stated): 0.296 µM; `CC(C)c1nc(N2CCCC2)c(C#N)c2c1CCCC2`: 4.1 µM. The result for `COc1ccc(C2CC(=O)c3cnc(N4CCN(Cc5ccccc5)CC4)nc3C2)cc1` (configuration not stated) reads 13.7 µM; that for `O=C(NC(=S)NNC(=O)c1ccccc1[N+](=O)[O-])c1ccc(Br)cc1`, 2.24 µM.

With `CCOC(=O)c1cnc(-n2nc(C)cc2C)nc1NC1CCCC1`, the EC50 was 2.58 µM.

On to `COC(=O)c1ccc(Oc2nc3ccccc3n3c(C)nnc23)cc1`, for which the EC50 was 6.1 µM. Regarding `CCN(CC)S(=O)(=O)c1ccc(N2CCOCC2)c(NC(=O)C2CSC3(C)CCC(=O)N23)c1` (configuration not stated), the EC50 was > 15 µM (inactive).

For `COc1cc(/C=N/Nc2nc3ccccc3s2)cc([N+](=O)[O-])c1O`, the EC50 is 8.93 µM. The result for `Oc1c(C=Nc2cccc3cccnc23)sc2ccccc12` reads 3.94 µM; that for `O=[N+]([O-])c1ccc(Nc2nc(NCCO)nc(N3CCCC3)n2)cc1`, 5.91 µM; that for `O=C(Nc1cc([N+](=O)[O-])ccc1O)c1cccc(NC(=O)c2ccco2)c1`, 2.78 µM.

Turning to `COc1ccc(C(=O)N2CCCC(Nc3ccc(C)c(C)c3)C2)cc1F` (configuration not stated), the EC50 is > 15 µM (inactive). `Cc1cc(C)cc(-n2c(C)cc(/C=C3\C(=N)N4N=C(CC(C)C)SC4=NC3=O)c2C)c1`: the EC50 was 2.67 µM. Turning to `Fc1ccccc1CNc1cc(Cl)cc(Cl)c1`, the EC50 was 12.5 µM. In the case of `CCc1ccc(OCC(=O)NC(NC(=S)Nc2ccc(C)cc2C)C(Cl)(Cl)Cl)cc1` (configuration not stated), the 50% effective concentration (EC50) is 4.44 µM.

With `c1ccc(CCNc2nc(-c3ccccn3)cs2)cc1`, the EC50 is 3.71 µM.

`CCOc1ccc(C(=O)NC(=S)Nc2ccc(NC(=O)CC)cc2)cc1[N+](=O)[O-]`: the EC50 is 4.35 µM. Next, `COc1ccc(/C=N/NC(=O)Cc2csc(Nc3cccc(C(F)(F)F)c3)n2)cc1C`: 3.95 µM. The result for `Cc1oc(C(C)(C)C)cc1C(=O)N1CCN(C(c2ccccc2)c2ccccc2)CC1` reads 2.89 µM; that for `COc1cc(/C=C/C(=O)c2ccc([N+](=O)[O-])o2)ccc1O`, 2.98 µM.

As for `Cc1cc(C)nc(-n2nc(C)c(Sc3ccc(F)cc3)c2N)n1`, the EC50 is > 15 µM (inactive). As for `Cc1ccc(-c2cnc(N)n2C)cc1C`, the EC50 is 4.13 µM. Turning to `CCOC(=O)c1c(NC(=O)c2c(N)n(CCCOC)c3nc4ccccc4nc23)sc2c1CCCC2`, the EC50 is 8.85 µM. The result for `COc1ccc(Oc2nc(-c3ccccn3)ncc2OC)cc1` reads 1.45 µM. As for `Cc1[nH]n(-c2ccccc2)c(=O)c1/C=N/NC(=O)c1cccc(F)c1`, the half-maximal effective concentration (EC50) was 3.44 µM.

Regarding `Cc1noc(C)c1S(=O)(=O)N(CCc1ccccc1)Cc1ccccc1`, the EC50 was 5.83 µM. On to `COc1cccc(-c2cc(C(=O)NCC3CCCO3)c3cc(Br)cc(C)c3n2)c1` (configuration not stated), for which the EC50 is > 15 µM (inactive).

For `CC1=CC(C)(C)n2c(O)c(N=N)c3c(C)c(C)cc1c32`, the EC50 is 5.67 µM. The result for `CCCc1ccc(OCC(=O)NNC(=S)NC(=O)c2ccco2)cc1` reads under 0.06 µM.
